Values of other authors in patent US8097625B2, “Combination of sedative and a neurotransmitter modulator, and methods for improving sleep quality and treating depression” (priority 2003, dated 2012).
Where a name gives a salt, the structure may show the parent alone.

Columns and labels:
[1] = humans, 20 or 40 mg b.i.d. for 7 days; cited from earlier work
[2] = system: lumbar dorsal horn interneurones and Renshaw cells; settings: cats anaesthetized with pentobarbitone sodium; electrophoretic currents; cited from earlier work
[3] = molecular target: GABA:2-oxo-glutarate aminotransferase (Homo sapiens, UniProt P80404); settings: 10^−3 M; cited from earlier work
[4] = system: L-glutamate 1-carboxylase; settings: 10^−3 M; cited from earlier work
GABA uptake system = system: GABA uptake system; set-up: dose or concentration left out as unconfirmed; settings: cited from earlier work
mice = settings: reference agents, scores below 40 denote behavioral depression; cited from earlier work
[5] = cited from earlier work
[6] = molecular target: norepinephrine transporter (Homo sapiens, UniProt P23975); settings: cited from earlier work
[7] = system: norepinephrine and serotonin reuptake; settings: cited from earlier work
[8] = humans, cited from earlier work
[9] = cited from earlier work; remark: listed apart in the source
[10] = oral, 10 mg or 20 mg daily doses; cited from earlier work
[11] = system: patients with major depression; settings: 24 patients (37 trials) with major depression, 3 weeks; cited from earlier work
[12] = oral; cited from earlier work

Chain of GABA:2-oxo-glutarate aminotransferase (P80404 29-500): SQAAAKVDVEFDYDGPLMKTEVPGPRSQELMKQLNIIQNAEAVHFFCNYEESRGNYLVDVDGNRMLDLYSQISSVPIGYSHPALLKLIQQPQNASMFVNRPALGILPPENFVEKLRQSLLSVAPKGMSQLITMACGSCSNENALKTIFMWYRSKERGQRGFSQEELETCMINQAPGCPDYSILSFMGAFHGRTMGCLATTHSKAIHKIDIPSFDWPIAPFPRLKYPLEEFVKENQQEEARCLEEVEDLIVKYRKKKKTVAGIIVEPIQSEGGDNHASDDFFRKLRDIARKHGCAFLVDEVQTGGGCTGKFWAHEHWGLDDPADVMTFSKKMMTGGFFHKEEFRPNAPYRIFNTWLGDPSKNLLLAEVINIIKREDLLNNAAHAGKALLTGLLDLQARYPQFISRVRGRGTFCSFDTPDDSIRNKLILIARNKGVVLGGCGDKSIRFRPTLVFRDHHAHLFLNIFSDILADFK
Chain of norepinephrine transporter (P23975 whole entry): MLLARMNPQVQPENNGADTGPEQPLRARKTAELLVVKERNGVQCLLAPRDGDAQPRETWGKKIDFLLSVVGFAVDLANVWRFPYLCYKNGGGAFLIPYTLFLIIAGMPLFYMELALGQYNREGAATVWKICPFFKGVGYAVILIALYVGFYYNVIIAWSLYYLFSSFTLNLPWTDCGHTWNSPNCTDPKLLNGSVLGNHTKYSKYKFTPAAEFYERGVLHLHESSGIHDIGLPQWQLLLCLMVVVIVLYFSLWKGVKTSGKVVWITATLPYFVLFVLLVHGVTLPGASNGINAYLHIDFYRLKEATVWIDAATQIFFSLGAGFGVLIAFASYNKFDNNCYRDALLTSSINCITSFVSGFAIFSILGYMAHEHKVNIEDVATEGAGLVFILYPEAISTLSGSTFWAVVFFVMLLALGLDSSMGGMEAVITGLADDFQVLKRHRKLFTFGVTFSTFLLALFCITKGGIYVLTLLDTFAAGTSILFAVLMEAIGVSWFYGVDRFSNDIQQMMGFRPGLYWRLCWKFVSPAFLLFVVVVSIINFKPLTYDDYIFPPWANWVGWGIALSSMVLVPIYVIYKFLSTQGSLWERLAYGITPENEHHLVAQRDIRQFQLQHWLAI

## CNCC[C@@H](Oc1ccccc1C)c1ccccc1 [tomoxetine, (R)-(−)-N-methyl-3-(2-methylphenoxy)-3-phenylpropylamine]
[1]
  drug-related adverse effects: no serious drug-related adverse effects were observed

## Oc1noc2c1CCNC2 [gaboxadol, 4,5,6,7-tetrahydroisoxazolo[5,4-c]pyridin-3-ol]
[2]
  potency versus GABA, inhibition of the firing of central neurones: relatively more potent than GABA
[3]
  interaction with GABA:2-oxo-glutarate aminotransferase: did not interact
[4]
  interaction with L-glutamate 1-carboxylase: did not interact
GABA uptake system
  interaction with the GABA uptake system: did not interact

## CCCC(C)C1(CC)C(=O)NC(=O)NC1=O (stereo not drawn) [pentobarbital]
mice
  ED100: 100 mg/kg

## CNCCCC12CCC(c3ccccc31)c1ccccc12 [Maprotiline hydrochloride, N-Methyl-9,10-ethanoanthracene-9(10H)-propanamine]
[5]
  solubility in water (in words): slightly soluble in water

## c1ccc(CCCN2CCN(CCOC(c3ccccc3)c3ccccc3)CC2)cc1 [GBR-12935, 1-[2-(diphenylmethoxy)ethyl]-4-(3-phenylpropyl)piperazine dihydrochloride]
[6]
  Ki: 225 nM

## CNCCCN1c2ccccc2CCc2ccccc21 [Desipramine hydrochloride, 10,11-Dihydro-N-methyl-5H-dibenz[b,f]azepine-5-propanamine]
[5]
  solubility in water (in words): soluble in water

## COC(=O)[C@H]1[C@H]2C[C@@H]3c4[nH]c5cc(OC)ccc5c4CCN3C[C@H]2C[C@@H](OC(=O)c2cc(OC)c(OC)c(OC)c2)[C@@H]1OC [reserpine]
mice
  ED100: 50 mg/kg

## O=C(CCCN1CCC(O)(c2ccc(Cl)cc2)CC1)c1ccc(F)cc1 [haloperidol]
mice
  ED100: 10 mg/kg

## CCN(CC)C(=O)[C@@]1(c2ccccc2)C[C@H]1CN (single isomer, unassigned) [dextrogyral enantiomer of milnacipran]
[7]
  activity in inhibiting norepinephrine and serotonin reuptake versus the racemic mixture: about twice as active

## CC(NC(C)(C)C)C(=O)c1cccc(Cl)c1 (stereo not drawn) [Bupropion]
[8]; after chronic dosing
  mean elimination half-life (±SD): 21 (±9) hours
[8]; oral administration
  terminal phase mean half-life: 14 h

## CCC1(c2ccccc2)CCC(=O)NC1=O (stereo not drawn) [glutethimide]
mice
  ED100: 300 mg/kg

## CC(=O)N(C)c1cccc(-c2ccnc3c(C(=O)c4cccs4)cnn23)c1 [Indiplon, N-methyl-N-(3-{3-[2-thienylcarbonyl]-pyrazolo-[1,5-a]-pyrimidin-7-yl}-phenyl)acetamide]
[9]
  half-life in vivo: approximately 1.3 hours
[5]; at approximately 20-30 µg/mL
  resulting pH of solution in water: approximately 8.0
[5]; resulting pH approximately 8.0
  soluble in water: 20 to 30 µg/mL

## CCN(CC)C(=O)[C@@]1(c2ccccc2)C[C@H]1CN (single isomer, unassigned) [levrogyral enantiomer]
[7]
  activity in inhibiting norepinephrine and serotonin reuptake versus the racemic mixture: much less potent

## CNCCC(Oc1ccc(C(F)(F)F)cc1)c1ccccc1.Cl (racemic) [Fluoxetine hydrochloride, N-methyl-3-(p-trifluormethylphenoxy)3-phenylpropylamine]
[10]
  elimination half-life: 24 to 220 h
  elimination half-life, averaging: 48 to 72 h

## CCCC(C)(COC(N)=O)COC(N)=O [meprobamate]
mice
  ED100: 300 mg/kg

## CNCC(O)CC12CCC(c3ccccc31)c1ccccc12 (racemic) [oxaprotiline, (±)-α-[(Methylamino)-methyl]-9,10-ethanoanthracene-9(10H)-ethanol]
[11]
  Hamilton Scores: significant reduction

## Cc1ccc(-c2nc3ccc(C)cn3c2CC(=O)N(C)C)cc1 [zolpidem, N,N,6-trimethyl-2-(4-methylphenyl)-imidazo [1,2-s]pyridine-3-acetamide]
[12]
  duration of action: up to 6 hours
